{
  "source": "PubChem BioAssay AID1963983",
  "about": "(Molecular Pharmacology Branch, DTP, NCI, 2024)",
  "tested_on": "186277-243-T-J2-PDC multi-cell spheroid viability",
  "experiment": "Anticancer human tumor 186277-243-T-J2-PDC patient-derived colon adenocarcinoma cell line growth inhibition [PI3K]",
  "conditions": "for IC50: curve of first compound; for viability, T/C: stronger effect = lower value",
  "description": "Combinatorial screen of targeted agents with the PI3K inhibitors inavolisib, alpelisib, duvelisib, and copanlisib in multi-cell type tumor spheroids\nA high-throughput screen of multi-cell type tumor spheroids was designed to identify active combinations of targeted small molecules and PI3K pathway inhibitors. Complex spheroids include a stromal component modeled by human endothelial cells (HUVEC) and fibroblasts modeled by human mesenchymal stem cells (MSCs). The concentration ranges selected for each drug and investigational agent were based upon clinically achievable concentrations if the clinical Cmax of the agent was known.\nCompounds. The drugs and investigational agents: inavolisib (NSC800729), alpelisib (NSC765974), duvelisib (NSC772469), copanlisib (NSC816437), ipatasertib (NSC767898), afuresertib (NSC778305), talazoparib (NSC767125), sapanisertib (NSC764658), selumetinib (NSC741078), tovorafenib (DAY101, NSC766906), vemurafenib (NSC761431), ravoxertinib (NSC781343), sotorasib (NSC818433), MRTX1133 (NSC 836407), abemaciclib (NSC 768073), palbociclib (NSC758247), venetoclax (NSC 766270), SY5609 (NSC837396), enzalutamide (NSC755605), and darolutamide (NSC825331), were obtained from the National Cancer Institute (NCI) Developmental Therapeutics Program Chemical Repository. The FDA-approved anticancer drug set is available from the NCI Developmental Therapeutics Program. […] The stock solutions were prepared in dimethyl sulfoxide (DMSO, Sigma-Aldrich, St. Louis, MO, cat. D2650) at 800-fold the tested concentration and stored at -70 degrees C prior to their use. All drugs and investigational agents were tested over a range starting from a high concentration at or near the clinical Cmax and decreasing in half-log increments. If the clinical Cmax for an agent had not been determined, the highest concentration tested was 10 microM.\nCell Culture. All cells were maintained in an incubator at 37 degrees C and 5% CO2 with 95% humidity. The PDC lines were cultured according to standard operating procedures established by the NCI PDMR (https://pdmr.cancer.gov/sops/default.htm). All PDCs were thawed and cultured in Matrigel-coated flasks prepared with a working solution of 1X Ham's F-12 nutrient mix, without supplementation (Invitrogen, Waltham, MA, cat. 11765054), 100 U/mL penicillin-streptomycin (Invitrogen, cat. 15140122), and 2.5% Matrigel (Corning Inc., Corning, NY, cat. 354248) for the first three passages. The 354836-022-R-J1-PDC, 475296-252-R-J1-PDC, and 997726-040-R-J2-PDC lines were cultured in 6A media, which includes advanced DMEM/F-12 (Thermo Fisher Scientific, cat. 12634028), 10 mM HEPES (Thermo Fisher Scientific, cat. 15630080), 1X GlutaMAX supplement (Thermo Fisher Scientific, cat. 35050061), 0.1 mg/mL primocin (InvivoGen, San Diego, CA, cat. ant-pm-2), 10% defined fetal bovine serum, heat inactivated (HyClone Laboratories Inc., Logan, UT, cat. SH30070.03HI), 50% L-WRN conditioned media (ATCC, cat. CRL-3276), 1.25 mM N-Acetyl-L-cysteine (Sigma-Aldrich, cat. A9165), 10 mM nicotinamide (Sigma-Aldrich, cat. N0636), 1X B-27 supplement (Thermo Fisher Scientific, cat. 17504044), 1X N-2 supplement (Thermo Fisher Scientific, cat. 17502048), and 10 microM Y-27632 dihydrochloride (Tocris Bioscience, Bristol, United Kingdom, cat. 1254). The 624824-186-R-J2-PDC line was cultured in 6C/Colon 1B media, which includes all 6A media components plus 50 ng/mL human EGF recombinant protein (Thermo Fisher Scientific, cat. PHG0311). […]",
  "data": [
    {"molecule": "CC(C)NCC(C(=O)N1CCN(c2ncnc3c2C(C)CC3O)CC1)c1ccc(Cl)cc1", "note": "(configuration not stated) + Cc1nc(NC(=O)N2CCCC2C(N)=O)sc1-c1ccnc(C(C)(C)C(F)(F)F)c1;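 further: spheroids exposed to compounds for seven days before viability reading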;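 on viability, T/C: 100% = DMSO vehicle control viability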", "values": [
      {"measurement": "IC50", "setting": "second compound 0.0316 µM", "result": 893, "unit": "nM"},
      {"measurement": "IC50", "setting": "second compound 0.1 µM", "result": 603, "unit": "nM"},
      {"measurement": "IC50", "setting": "second compound 0.316 µM", "result": 544, "unit": "nM"},
      {"measurement": "IC50", "setting": "second compound 1 µM", "result": 262, "unit": "nM"},
      {"measurement": "IC50", "setting": "second compound 3.16 µM", "result": 59.7, "unit": "nM"},
      {"measurement": "IC50", "setting": "second compound 10 µM", "result": "< 31.6", "unit": "nM"},
      {"measurement": "viability, T/C", "setting": "second compound 0.0316 µM, first compound 0.0316 µM", "result": 115, "unit": "%"},
      {"measurement": "viability, T/C", "setting": "second compound 0.0316 µM, first compound 0.1 µM", "result": 93, "unit": "%"},
      {"measurement": "viability, T/C", "setting": "second compound 0.0316 µM, first compound 0.316 µM", "result": 59, "unit": "%"},
      {"measurement": "viability, T/C", "setting": "second compound 0.0316 µM, first compound 1 µM", "result": 54.1, "unit": "%"},
      {"measurement": "viability, T/C", "setting": "second compound 0.0316 µM, first compound 3.16 µM", "result": 31.6, "unit": "%"},
      {"measurement": "viability, T/C", "setting": "second compound 0.0316 µM, first compound 10 µM", "result": 22.5, "unit": "%"},
      {"measurement": "viability, T/C", "setting": "second compound 0.1 µM, first compound 0.0316 µM", "result": 90.3, "unit": "%"},
      {"measurement": "viability, T/C", "setting": "second compound 0.1 µM, first compound 0.1 µM", "result": 92.4, "unit": "%"},
      {"measurement": "viability, T/C", "setting": "second compound 0.1 µM, first compound 0.316 µM", "result": 58.6, "unit": "%"},
      {"measurement": "viability, T/C", "setting": "second compound 0.1 µM, first compound 1 µM", "result": 43.9, "unit": "%"},
      {"measurement": "viability, T/C", "setting": "second compound 0.1 µM, first compound 3.16 µM", "result": 23.5, "unit": "%"},
      {"measurement": "viability, T/C", "setting": "second compound 0.1 µM, first compound 10 µM", "result": 23.9, "unit": "%"},
      {"measurement": "viability, T/C", "setting": "second compound 0.316 µM, first compound 0.0316 µM", "result": 94.5, "unit": "%"},
      {"measurement": "viability, T/C", "setting": "second compound 0.316 µM, first compound 0.1 µM", "result": 80.2, "unit": "%"},
      {"measurement": "viability, T/C", "setting": "second compound 0.316 µM, first compound 0.316 µM", "result": 64, "unit": "%"},
      {"measurement": "viability, T/C", "setting": "second compound 0.316 µM, first compound 1 µM", "result": 36.5, "unit": "%"},
      {"measurement": "viability, T/C", "setting": "second compound 0.316 µM, first compound 3.16 µM", "result": 18, "unit": "%"},
      {"measurement": "viability, T/C", "setting": "second compound 0.316 µM, first compound 10 µM", "result": 14.3, "unit": "%"},
      {"measurement": "viability, T/C", "setting": "second compound 1 µM, first compound 0.0316 µM", "result": 92.5, "unit": "%"},
      {"measurement": "viability, T/C", "setting": "second compound 1 µM, first compound 0.1 µM", "result": 74.8, "unit": "%"},
      {"measurement": "viability, T/C", "setting": "second compound 1 µM, first compound 0.316 µM", "result": 45.4, "unit": "%"},
      {"measurement": "viability, T/C", "setting": "second compound 1 µM, first compound 1 µM", "result": 24.7, "unit": "%"},
      {"measurement": "viability, T/C", "setting": "second compound 1 µM, first compound 3.16 µM", "result": 21.4, "unit": "%"},
      {"measurement": "viability, T/C", "setting": "second compound 1 µM, first compound 10 µM", "result": 16.3, "unit": "%"},
      {"measurement": "viability, T/C", "setting": "second compound 3.16 µM, first compound 0.0316 µM", "result": 56.3, "unit": "%"},
      {"measurement": "viability, T/C", "setting": "second compound 3.16 µM, first compound 0.1 µM", "result": 47, "unit": "%"},
      {"measurement": "viability, T/C", "setting": "second compound 3.16 µM, first compound 0.316 µM", "result": 25.3, "unit": "%"},
      {"measurement": "viability, T/C", "setting": "second compound 3.16 µM, first compound 1 µM", "result": 20.3, "unit": "%"},
      {"measurement": "viability, T/C", "setting": "second compound 3.16 µM, first compound 3.16 µM", "result": 10, "unit": "%"},
      {"measurement": "viability, T/C", "setting": "second compound 3.16 µM, first compound 10 µM", "result": 5.7, "unit": "%"},
      {"measurement": "viability, T/C", "setting": "second compound 10 µM, first compound 0.0316 µM", "result": 14.2, "unit": "%"},
      {"measurement": "viability, T/C", "setting": "second compound 10 µM, first compound 0.1 µM", "result": 13.1, "unit": "%"},
      {"measurement": "viability, T/C", "setting": "second compound 10 µM, first compound 0.316 µM", "result": 7.49, "unit": "%"},
      {"measurement": "viability, T/C", "setting": "second compound 10 µM, first compound 1 µM", "result": 9.25, "unit": "%"},
      {"measurement": "viability, T/C", "setting": "second compound 10 µM, first compound 3.16 µM", "result": 5.71, "unit": "%"},
      {"measurement": "viability, T/C", "setting": "second compound 10 µM, first compound 10 µM", "result": 3.29, "unit": "%"}
    ]}
  ]
}
